Results: patent publication US9040547B2, “Pyrrolopyrimidine and purine derivatives” (PFIZER INC., priority 2011, dated 2015)

Assays:
Type in all cases: cell-based
EGFR Del (PC9) = biological target: T1, EGFR Del (PC9) (Homo sapiens, UniProt P00533, DEL746-750); assay: EGFR ELISA, PC9 Del cells; conditions: read-out: EGFR_ELISA9E PC9 Del IC50;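 also: cellular EGFR autophosphorylation at Tyr1068 quantified by sandwich ELISA of cell lysates after 2 h compound exposure at 37 °C, 11-point threefold dilution series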
T1 construct: endogenous in cells; host or cells: PC-9

[1] = biological target: T2, EGFR wildtype, endogenous (Homo sapiens, UniProt P00533); assay: pEGFR Y1068 ELISA assay, A549 cells; conditions: full serum media, stimulated 10 min with EGF (40 ng/mL), read-out: pEGFRY1068 ELISAA549 IC50;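 also: sandwich ELISA of phospho-EGFR Tyr1068 in cell lysates, cells exposed to compound for 2 h before EGF stimulation, 11-point threefold dilution series run in duplicate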
T2 construct: A549 (EGFR wildtype, endogenous); host or cells: A549

EGFR L858R+T790M = EGFR L858R+T790M (Homo sapiens, UniProt P00533, L858R/T790M); assay: pEGFR Y1068 ELISA assay, NIH3T3/EGFR_L858R+T790M cells; conditions: 3T3 cell line, 2 hrs compound treatment; read-out: pEGFRY1068 ELISA3T3T790M—L858R IC50;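 also: sandwich ELISA of EGFR phosphorylated at Tyr1068 in lysates of stably transfected NIH/3T3 cells, 11-point threefold dilution series run in duplicate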
EGFR E746-A750 deletion = EGFR E746-A750 deletion (Homo sapiens, UniProt P00533, DEL746-750); assay: pEGFR Y1068 ELISA assay, NIH3T3/EGFR_E746-A750 deletion cells; conditions: 3T3 Del cells, 2 hrs compound treatment; read-out: ELISA7E 3T3 Del IC50;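 also: sandwich ELISA on cell lysates detecting phospho-EGFR at Tyr1068, compounds run as 11-point threefold dilution series in duplicate, IC50 from inhibition of this phosphorylation signal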
EGFR L858R = EGFR L858R (Homo sapiens, UniProt P00533, L858R); assay: pEGFR Y1068 ELISA assay, NIH3T3/EGFR_L858R cells; conditions: 3T3 cell line, 2 hrs compound treatment; read-out: pEGFRY1068 ELISA3T3 L858R IC50;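 also: sandwich ELISA of phospho-EGFR Tyr1068 in lysates of stably transfected NIH/3T3 pools after 2 h compound exposure at 37 °C, 11-point threefold dilution series run in duplicate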
Sequence of EGFR L858R (P00533 25-1210 L858R): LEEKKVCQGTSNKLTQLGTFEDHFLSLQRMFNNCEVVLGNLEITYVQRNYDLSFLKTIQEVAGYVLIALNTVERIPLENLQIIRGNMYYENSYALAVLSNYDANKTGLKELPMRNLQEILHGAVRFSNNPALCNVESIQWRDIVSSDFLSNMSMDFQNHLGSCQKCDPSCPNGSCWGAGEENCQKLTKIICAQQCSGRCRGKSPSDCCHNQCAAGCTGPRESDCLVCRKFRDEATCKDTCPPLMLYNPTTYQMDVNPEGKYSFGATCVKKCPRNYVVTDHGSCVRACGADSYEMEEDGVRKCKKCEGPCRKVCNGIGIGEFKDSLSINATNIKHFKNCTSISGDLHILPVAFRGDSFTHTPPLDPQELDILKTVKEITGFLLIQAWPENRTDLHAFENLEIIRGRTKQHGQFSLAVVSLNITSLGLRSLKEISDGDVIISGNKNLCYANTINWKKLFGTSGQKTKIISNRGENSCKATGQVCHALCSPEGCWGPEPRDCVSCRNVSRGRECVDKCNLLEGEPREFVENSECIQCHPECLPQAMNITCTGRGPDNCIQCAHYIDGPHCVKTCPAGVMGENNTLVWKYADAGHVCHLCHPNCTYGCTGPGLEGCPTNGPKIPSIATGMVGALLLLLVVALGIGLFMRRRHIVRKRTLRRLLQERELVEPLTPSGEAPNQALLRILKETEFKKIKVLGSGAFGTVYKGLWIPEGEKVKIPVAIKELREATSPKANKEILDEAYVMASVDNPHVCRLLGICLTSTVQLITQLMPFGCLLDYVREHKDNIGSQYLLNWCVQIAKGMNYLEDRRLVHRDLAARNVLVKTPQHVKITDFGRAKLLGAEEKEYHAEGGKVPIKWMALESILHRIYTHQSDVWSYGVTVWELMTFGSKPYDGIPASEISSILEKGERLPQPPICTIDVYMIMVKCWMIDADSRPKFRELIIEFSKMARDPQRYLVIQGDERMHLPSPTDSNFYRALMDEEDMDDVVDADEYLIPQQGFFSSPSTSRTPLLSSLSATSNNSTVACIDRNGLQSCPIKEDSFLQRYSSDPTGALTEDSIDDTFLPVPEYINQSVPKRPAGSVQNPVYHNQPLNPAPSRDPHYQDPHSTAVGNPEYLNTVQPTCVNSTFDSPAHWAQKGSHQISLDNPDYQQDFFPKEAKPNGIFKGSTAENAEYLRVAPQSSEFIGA

Sequence of EGFR E746-A750 deletion (P00533 with tags, fused parts or gaps DEL746-750): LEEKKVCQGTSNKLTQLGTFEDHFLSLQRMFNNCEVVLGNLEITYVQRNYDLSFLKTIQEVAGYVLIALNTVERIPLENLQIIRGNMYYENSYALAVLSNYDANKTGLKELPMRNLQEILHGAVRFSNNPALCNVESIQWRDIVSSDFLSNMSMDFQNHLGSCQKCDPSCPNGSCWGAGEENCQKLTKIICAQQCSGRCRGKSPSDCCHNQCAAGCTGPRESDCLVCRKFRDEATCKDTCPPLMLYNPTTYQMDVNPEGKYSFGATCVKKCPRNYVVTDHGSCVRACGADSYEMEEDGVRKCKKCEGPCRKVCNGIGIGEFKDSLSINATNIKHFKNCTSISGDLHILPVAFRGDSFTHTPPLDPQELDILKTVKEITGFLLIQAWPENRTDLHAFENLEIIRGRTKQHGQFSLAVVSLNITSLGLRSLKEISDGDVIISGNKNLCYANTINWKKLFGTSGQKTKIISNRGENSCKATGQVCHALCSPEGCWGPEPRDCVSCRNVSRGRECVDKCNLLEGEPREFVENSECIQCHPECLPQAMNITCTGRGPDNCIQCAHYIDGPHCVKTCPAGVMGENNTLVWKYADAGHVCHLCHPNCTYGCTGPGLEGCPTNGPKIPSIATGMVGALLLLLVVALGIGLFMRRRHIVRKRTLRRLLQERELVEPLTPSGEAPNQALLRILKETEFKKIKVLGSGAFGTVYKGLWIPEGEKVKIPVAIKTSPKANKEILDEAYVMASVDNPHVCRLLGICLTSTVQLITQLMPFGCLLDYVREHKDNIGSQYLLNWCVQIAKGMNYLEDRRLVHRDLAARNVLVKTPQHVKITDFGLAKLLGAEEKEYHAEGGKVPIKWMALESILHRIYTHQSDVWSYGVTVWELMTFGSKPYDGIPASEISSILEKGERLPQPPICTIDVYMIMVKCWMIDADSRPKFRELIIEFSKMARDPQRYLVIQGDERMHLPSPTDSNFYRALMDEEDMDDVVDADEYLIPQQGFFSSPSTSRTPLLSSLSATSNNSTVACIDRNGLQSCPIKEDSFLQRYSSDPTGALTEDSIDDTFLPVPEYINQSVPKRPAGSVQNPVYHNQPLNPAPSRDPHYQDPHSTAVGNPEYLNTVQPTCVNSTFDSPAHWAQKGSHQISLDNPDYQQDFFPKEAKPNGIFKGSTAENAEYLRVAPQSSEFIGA
T1 sequence (P00533 with tags, fused parts or gaps DEL746-750): as above
Sequence of EGFR L858R+T790M (P00533 25-1210 T790M/L858R): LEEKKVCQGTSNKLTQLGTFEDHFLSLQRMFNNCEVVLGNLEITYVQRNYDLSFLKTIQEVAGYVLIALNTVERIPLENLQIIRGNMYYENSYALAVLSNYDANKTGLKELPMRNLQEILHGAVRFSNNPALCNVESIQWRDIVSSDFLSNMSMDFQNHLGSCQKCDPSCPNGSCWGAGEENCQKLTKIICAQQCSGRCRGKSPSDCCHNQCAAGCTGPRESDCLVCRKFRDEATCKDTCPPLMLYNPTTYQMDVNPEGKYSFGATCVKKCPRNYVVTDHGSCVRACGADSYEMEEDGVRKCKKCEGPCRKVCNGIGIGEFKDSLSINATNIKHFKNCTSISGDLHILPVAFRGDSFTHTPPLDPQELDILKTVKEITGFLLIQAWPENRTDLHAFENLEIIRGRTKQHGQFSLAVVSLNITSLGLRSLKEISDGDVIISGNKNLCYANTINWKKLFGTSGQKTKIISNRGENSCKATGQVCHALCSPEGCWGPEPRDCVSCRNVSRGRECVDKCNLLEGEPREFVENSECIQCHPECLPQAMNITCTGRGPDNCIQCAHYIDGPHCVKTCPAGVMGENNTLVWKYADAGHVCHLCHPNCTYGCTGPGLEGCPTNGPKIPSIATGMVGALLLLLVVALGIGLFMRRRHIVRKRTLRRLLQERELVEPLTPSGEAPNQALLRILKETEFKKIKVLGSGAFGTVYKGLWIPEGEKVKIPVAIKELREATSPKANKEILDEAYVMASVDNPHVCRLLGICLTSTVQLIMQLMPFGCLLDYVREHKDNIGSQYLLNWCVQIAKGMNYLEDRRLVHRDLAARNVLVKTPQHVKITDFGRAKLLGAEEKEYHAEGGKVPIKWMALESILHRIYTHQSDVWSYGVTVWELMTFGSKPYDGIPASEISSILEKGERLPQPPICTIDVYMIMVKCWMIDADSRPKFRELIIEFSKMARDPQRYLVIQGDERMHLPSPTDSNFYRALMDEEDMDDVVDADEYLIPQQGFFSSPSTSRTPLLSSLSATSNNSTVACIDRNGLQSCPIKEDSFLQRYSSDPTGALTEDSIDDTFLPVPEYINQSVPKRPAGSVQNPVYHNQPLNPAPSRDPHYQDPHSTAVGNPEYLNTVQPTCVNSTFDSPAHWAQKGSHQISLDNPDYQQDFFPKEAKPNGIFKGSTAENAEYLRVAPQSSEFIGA

IC50 (EGFR Del (PC9)) | IC50 [1] | IC50 (EGFR L858R+T790M) | IC50 (EGFR E746-A750 deletion) | IC50 (EGFR L858R) | Compound
838 nM | > 10000 nM |  |  |  | C=CC(=O)N1C[C@H](COc2nc(Nc3cnn(C)c3)nc3[nH]cc(-c4ccccn4)c23)[C@@H](OC)C1 [Example 117]
 | > 10000 nM | 9 nM | 309 nM | 120 nM | C=CC(=O)N1C[C@@H]2[C@H](C1)[C@H]2Oc1nc(Nc2cnn(C)c2)nc2[nH]cc(Cl)c12 [Example 66]
 | > 10000 nM | 79 nM |  | 1500 nM | C=CC(=O)N1CCO[C@H](COc2nc(Nc3cnn(C)c3)nc3[nH]ccc23)C1 [Example 18]
 | > 10000 nM | 308 nM |  | 2510 nM | C=CC(=O)N1CC(COc2nc(Nc3cnn(C)c3)nc3[nH]ccc23)C1 [Example 16]
 | > 7890 nM | 7 nM | 36 nM | 78 nM | C=CC(=O)Nc1cccc(Oc2nc(Nc3ccn(C)n3)nc3[nH]ccc23)c1F [Example 59]
465 nM | > 9370 nM | 19 nM | 117 nM | 287 nM | C=CC(=O)N[C@H]1C[C@@](C)(Oc2nc(Nc3cnn(C)c3)nc3[nH]cc(Cl)c23)C1 [Example 69]
 | > 10000 nM | 5340 nM |  | > 10000 nM | C=CC(=O)Nc1cccc(COc2nc(Nc3cnn(C)c3)nc3[nH]ccc23)c1 [Example 43]
 | 2800 nM | 15 nM | 100 nM | 190 nM | C=CC(=O)Nc1cccc(Oc2nc(Nc3cnn(C4CCOC4)c3)nc3[nH]ccc23)c1 (centres unmarked) [Example 39]
 | > 10000 nM | 189 nM | 581 nM | 1700 nM | C=CC(=O)N(C)C1CC(Oc2nc(Nc3cnn(C)c3)nc3[nH]cc(C#N)c23)C1 (centres unmarked) [Example 61]
 | 6740 nM | 20 nM |  | 275 nM | C=CC(=O)Nc1cccc(Oc2nc(Nc3cnn(C)c3C)nc3[nH]ccc23)c1 [Example 24]
 | > 10000 nM | 182 nM |  | 834 nM | C=CC(=O)N1C[C@@H](CC)[C@H](COc2nc(Nc3cnn(C)c3)nc3[nH]ccc23)C1 (single isomer, unassigned) [Example 15]
 | > 10000 nM | 355 nM | 663 nM | 1140 nM | C=CC(=O)Nc1cccc(Oc2nc(Nc3cnn(CCN(C)C)c3)nc3[nH]cnc23)c1 [Example 53]
3220 nM | > 10000 nM |  |  |  | C=CC(=O)N1CC[C@@H](Nc2nc(Nc3cnn(C)c3)nc3[nH]cc(C#N)c23)C1 [Example 78]
 | 2020 nM | 7 nM | 22 nM | 97 nM | C=CC(=O)Nc1cc(F)cc(Oc2nc(Nc3ccn(C)n3)nc3[nH]ccc23)c1 [Example 49]
 | > 10000 nM | 35 nM | 137 nM | 431 nM | C=CC(=O)Nc1cccc(Oc2nc(Nc3ccn(CCN(C)C)n3)nc3[nH]ccc23)c1 [Example 51]
 | 5900 nM | 8 nM |  | 90 nM | C=CC(=O)N1CCc2c(Oc3nc(Nc4cnn(C)c4)nc4[nH]ccc34)cccc21 [Example 38]
 |  |  | > 10000 nM |  | C=CC(=O)N[C@H]1C[C@@H](Oc2nc(Nc3cnn(C)c3)nc3[nH]cnc23)C1 (single isomer, unassigned) [Example 55]
 | > 10000 nM | 168 nM | 192 nM | 672 nM | C=CC(=O)Nc1cccc(Oc2nc(Nc3cnn(C)c3)nc3[nH]cnc23)c1 [Example 54]
 | > 10000 nM | 15 nM | 512 nM | 332 nM | C=CC(=O)N1C[C@H](COc2nc(Nc3cnn([C@@H]4CCOC4)c3)nc3[nH]cc(Cl)c23)[C@@H](OC)C1 [Example 103]
 | > 10000 nM | 681 nM |  | > 10000 nM | C=CC(=O)Nc1cccc(Oc2nc(Nc3cnn(CC(=O)N(C)C)c3)nc3[nH]ccc23)c1 [Example 58]
 | 3560 nM | 25 nM | 90 nM | 552 nM | C=CS(=O)(=O)N1CCc2c(Oc3nc(Nc4cnn(C)c4)nc4[nH]ccc34)cccc21 [Example 44]
 | > 10000 nM | 8 nM | 9 nM | 15 nM | C=CC(=O)Nc1cccc(Oc2nc(Nc3cnn([C@H]4CCN(C)C4)c3)nc3[nH]ccc23)c1F [Example 106]

IC50 (EGFR Del (PC9)) | IC50 [1] | IC50 (EGFR L858R+T790M) | IC50 (EGFR E746-A750 deletion) | IC50 (EGFR L858R) | Compound
 |  |  | 116 nM |  | C=CC(=O)N1CCc2c(Oc3nc(Nc4ccn(C)n4)nc4[nH]ccc34)cccc21 [Example 29]
 | > 10000 nM | 396 nM | 1130 nM | 1120 nM | C=CC(=O)Nc1cccc(Oc2nc(Nc3cnn(C4CCN(C)C4)c3)nc3[nH]cnc23)c1 (centres unmarked) [Example 7, N-{3-[(2-{[1-(1-methylpyrrolidin-3-yl)-1H-pyrazol-4-yl]amino}-9H-purin-6-yl)oxy]phenyl}prop-2-enamide]
 | > 10000 nM | 41 nM |  | 67 nM | C=CC(=O)N1CCc2c(Oc3nc(Nc4cnn(C)c4)nc4[nH]cc(C#N)c34)cccc21 [Example 37]
 | 9060 nM | 57 nM |  | 733 nM | C=CC(=O)N1C[C@@H](COc2nc(Nc3cnn(C)c3)nc3[nH]ccc23)[C@H](C)C1 (single isomer, unassigned) [Example 3]
 | 6760 nM | 21 nM | 135 nM | 177 nM | C=CC(=O)Nc1cccc(Oc2nc(Nc3cc(C)nn3C)nc3[nH]ccc23)c1 [Example 26]
3 nM | 1370 nM | 17 nM | 8 nM | 25 nM | C=CC(=O)Nc1cccc(Oc2nc(Nc3cnn(C)c3)nc3[nH]cc(-c4cccnc4)c23)c1 [Example 8, N-[3-({2-[(1-methyl-1H-pyrazol-4-yl)amino]-5-(pyridin-3-yl)-7H-pyrrolo[2,3-d]pyrimidin-4-yl}oxy)phenyl]prop-2-enamide]
141 nM | > 10000 nM | 8 nM | 172 nM | 49 nM | C=CC(=O)N1C[C@H](COc2nc(Nc3cnn(CC)n3)nc3[nH]cc(Cl)c23)[C@@H](OC)C1 [Example 67]
 | 2390 nM | 9 nM | 25 nM | 91 nM | C=CC(=O)Nc1cccc(Oc2nc(Nc3cn(C)nc3C)nc3[nH]ccc23)c1 [Example 30]
 | > 10000 nM | 80 nM |  | 495 nM | C=CC(=O)Nc1cccc(Oc2nc(Nc3cc(C4CC4)nn3C)nc3[nH]ccc23)c1 [Example 46]
 | > 10000 nM | > 10000 nM |  | > 10000 nM | C=CC(=O)N[C@H]1C[C@H](Nc2nc(Nc3cnn(C)c3)nc3[nH]ccc23)C1 [Example 6, N-[trans-3-({2-[(1-methyl-1H-pyrazol-4-yl)amino]-7H-pyrrolo[2,3-d]pyrimidin-4-yl}amino)cyclobutyl]prop-2-enamide]
 | > 10000 nM | 25 nM | 110 nM | 123 nM | C=CC(=O)Nc1cccc(Oc2nc(Nc3cc(OCCN(C)C)nn3C)nc3[nH]ccc23)c1F [Example 104]
 | > 10000 nM | 69 nM |  | 1030 nM | C=CC(=O)Nc1cccc(Oc2nc(Nc3cnn(CC(C)(C)O)c3)nc3[nH]ccc23)c1 [Example 25]
 | > 10000 nM | 84 nM |  | 700 nM | C=CC(=O)Nc1cccc(Oc2nc(Nc3cc(COC)nn3C)nc3[nH]ccc23)c1 [Example 45]
 | 1860 nM | 16 nM | 12 nM | 23 nM | C=CC(=O)Nc1cccc(Oc2nc(Nc3cnn(C)c3)nc3[nH]cc(-c4cnn(C)c4)c23)c1 [Example 60]
 | > 10000 nM | 1820 nM | 8400 nM | > 10000 nM | C=CC(=O)N1CC[C@@H](Oc2nc(Nc3cnn(C)c3)nc3[nH]cc(C#N)c23)C1 [Example 20]
 | > 10000 nM | 50 nM | 317 nM | 752 nM | C=CC(=O)Nc1cccc(Oc2nc(Nc3cc(CC)nn3C)nc3[nH]ccc23)c1 [Example 47]
 | > 10000 nM | 77 nM |  | 547 nM | C=CC(=O)N1C[C@H](COc2nc(Nc3cnn(C)c3)nc3[nH]ccc23)[C@@H](C)C1 (single isomer, unassigned) [Example 4]
 | > 10000 nM | 33 nM |  | 585 nM | C=CC(=O)Nc1cccc(Oc2nc(Nc3ccn(C)n3)nc3[nH]cc(F)c23)c1 [Example 1, N-[3-({5-fluoro-2-[(1-methyl-1H-pyrazol-3-yl)amino]-7H-pyrrolo[2,3-d]pyrimidin-4-yl}oxy)phenyl]prop-2-enamide]
 | 2210 nM | 20 nM | 27 nM | 120 nM | C=CC(=O)Nc1cccc(Oc2nc(Nc3cnn(C4CCN(C)CC4)c3)nc3[nH]ccc23)c1 [Example 33]
 | > 10000 nM | 1800 nM |  | > 10000 nM | C=CC(=O)N[C@H]1C[C@H](Oc2nc(Nc3cnn(C)c3)nc3[nH]cc(C#N)c23)C1 [Example 14]
 | > 10000 nM | 104 nM |  | 2030 nM | C=CC(=O)N1CCO[C@@H](COc2nc(Nc3cnn(C)c3)nc3[nH]ccc23)C1 [Example 17]
 |  |  | > 10000 nM |  | C=CC(=O)N[C@H]1C[C@H](Oc2nc(Nc3cnn(C)c3)nc3[nH]cnc23)C1 (single isomer, unassigned) [Example 56]
